Measured values: patent publication EP0103381B1, “Substituted anthra(1,9-cd)pyrazol-6(2H)-ones” (WARNER-LAMBERT COMPANY, priority 1982, dated 1984)
Where two headings read alike, the source gives them in different places.

How the values were obtained:
[1] = test system: lymphocytic leukemia P388; assay: in vivo lymphocytic leukemia P388 test; parameters: species or system mice; settings: Mus musculus, P388, ip, 720 h, two single doses four days apart, read-out: T/C × 100 (Percent); for response vs control in vivo at 6.25 mg/kg: P388, Dose 6.25 mg/kg intraperitoneally; for response vs control in vivo at 12.5 mg/kg: P388, Dose 12.5 mg/kg intraperitoneally; for response vs control in vivo at 3.12 mg/kg: P388, Dose 3.12 mg/kg intraperitoneally; for response vs control in vivo at 50 mg/kg: P388, Dose 50 mg/kg intraperitoneally; for response vs control in vivo at 25 mg/kg: P388, Dose 25 mg/kg intraperitoneally; for response vs control in vivo at 100 mg/kg: P388, Dose 100 mg/kg intraperitoneally; for response vs control in vivo at 1.56 mg/kg: P388, Dose 1.56 mg/kg intraperitoneally
Protocol: The in vivo lymphocytic leukemia P388 test is carried out by the United States National Cancer Institute. The animals used are either male or female CD2F, mice. There are six to seven animals per test group. The tumor transplant is by intraperitoneal injection of dilute ascitic fluid containing cells of lymphocytic leukemia P388. The test compounds are administered intraperitoneally in two single doses with a four-day interval between doses at various dose levels following tumor inoculation. The animals are weighed and survivors are recorded on a regular basis for 30 days. A ratio of survival time for treated (T)/ control (C) animals is calculated. The criterion for efficacy is T/C x 100 > 125%. The positive control compound in this test is 1,4-dihydroxy-5,8-[bis[[2-[(2-hydroxyethyl)amino]-ethyl]amino]-9,10-anthracene- dione given at dosages ranging from 12.0 to 0.075 mg/kg. See Cancer Chemotherapy Reports, Part 3, 3, 1 (1972) for a comprehensive discussion of the protocol.

Bacillus subtilis = assay: agar plate paper-disc inhibition zone screening; format: cell-based; settings: read-out: Inhibition Zone Diameter mm (Dose mg/ml) B. Subtilis
Protocol: (§1) The bacterial and yeast isolates are maintained in agar slants or in liquid media, hereby designated as inoculum media. The cultures are transferred at regular intervals in such media. (See Table for the corresponding inoculum media of each culture.) The organisms are generally transferred on to agar slants or liquid inoculum media and incubated overnight (18-20 hours): 37°C for the bacterial isolates and 28°C for the fungal cultures.
(§2) The microbial cells from the overnight agar slants are then scraped off and suspended in saline solution (0.85% NaCI). The microbial concentrations are adjusted to a light transmittancy of 20-35%, Junior Coleman Spectrophotometer (555 M). For the organisms that are maintained in liquid media, an aliquot of the culture suspension is simply diluted with saline to 20-35% light transmittancy.
(§3) The above microbial suspension serve as inocula for the assay plates. Thus, 0.16-10 ml (see Table for exact amount) are used to inoculate 100 ml of the molten-agar assay medium.
(§4) Stainless steel frames, 12.3 x 25.3 cm (ID) and glass plates, 15.3 x 31.7 cm are used to make the test trays. The frames are attached to the plates with tape at each end and the inner edges sealed with 2% agar. Twenty five ml of inoculated assay medium is spread evenly on each tray and allowed to solidify. The trays are covered, inverted, and refrigerated until used.
(§5) The compounds or samples to be tested are dissolved in suitable solvents, e.g., alcohols, dimethylsulfoxide, or N,N-dimethylformamide. The samples are generally dissolved so that the final concentration of the solvent is <10%.^* The compounds are tested at different concentrations: 3,000; 1,000; 500; 100; and 10 mcg/ml. Paper discs (12.7 mm diameter) are placed on the agar trays with forceps, then 0.08 ml of the dissolved compound is pipetted onto each disc using a 0.2 ml pipette.
(§6) The disked agar trays are incubated overnight (18-20 hours) at 37°C for the bacterial cultures and 28°C for the yeasts. The Penicillium avellaneium tray is incubated for at least […] since it is a slower- growing organism.
(§7) Active compounds show a zone of inhibition around the disc. The diameter of the zone is measured in mm. The zone diameter of active compounds ranges from a minimum of 13.5 mm to as high as 60 mm. The size of the zone diameter generally reflects the activity of the compound: the larger the zone the greater the activity.

Streptococcus faecalis = assay: agar plate paper-disc inhibition zone screening; format: cell-based; settings: Enterococcus faecalis, read-out: Inhibition Zone Diameter mm (Dose mg/ml) S. Faecalis
Protocol: as §1, §2, §3, §4, §5, §6, §7

Penicillium avellaneum = assay: agar plate paper-disc inhibition zone screening; format: cell-based; settings: Hamigera avellanea, read-out: Inhibition Zone Diameter mm (Dose mg/ml) P. Avellaneum
Protocol: The Penicillium avellaneum is grown for six days, at 28°C, on an agar medium. This is to allow sporulation of the culture. The organism is then harvested by scraping off the cells from the agar surface (mycelia and spores) and suspending them in saline solution containing 0.05% Tween 80.
The suspension is adjusted to a light transmittancy of 20%. One ml of this suspension is used to inoculate 100 ml of the molten-agar assay medium.
as §4, §5, §6, §7

Compound: CSCCn1nc2c3c(c(NCCNCCO)ccc31)C(=O)c1c(O)ccc(O)c1-2 [Example 48]
- response vs control in vivo at 6.25 mg/kg [1]: 140%
- response vs control in vivo at 12.5 mg/kg [1]: 132%

Compound: CN(C)CCNCCn1nc2c3c(c(NCCNCCO)ccc31)C(=O)c1c(O)ccc(O)c1-2 [Example 50, 2-[2-[[2-(Dimethylamino)ethyl]amino]ethyl]-5-[[2-[(2-hydroxyethyl)amino]ethyl]amino]-7,10-dihydroxyanthra[1,9-cd]pyrazol-6(2H)-one]
- response vs control in vivo at 3.12 mg/kg [1]: 207%
- response vs control in vivo at 6.25 mg/kg [1]: 188%
- response vs control in vivo at 50 mg/kg [1]: 226%

Compound: CN(CCO)CCn1nc2c3c(c(NCCNCCO)ccc31)C(=O)c1c(O)ccc(O)c1-2 [Example 51, 7,10-Dihydroxy-5-[[2-[(2-hydroxyethyl)amino]ethyl]amino]-2-[2-[(2-hydroxyethyl)-methylamino]ethyl]anthra[1,9-cd]pyrazol-6(2H)-one]
- response vs control in vivo at 3.12 mg/kg [1]: 184%
- response vs control in vivo at 6.25 mg/kg [1]: 182%
- response vs control in vivo at 12.5 mg/kg [1]: 203%

Compound: O=C1c2c(O)ccc(O)c2-c2nn(CCCNCCO)c3ccc(NCCNCCO)c1c23 [Example 52, 7,10-Dihydroxy-5-[[2-[(2-hydroxyethyl)amino]ethyl]amino]-2-[3-((2-hydroxyethyi)amino]propyl]anthra[1,9-cd]pyrazol-6(2H)-one]
- response vs control in vivo at 12.5 mg/kg [1]: 157%
- response vs control in vivo at 25 mg/kg [1]: 183%
- response vs control in vivo at 100 mg/kg [1]: 259%

Compound: NCCCNc1ccc2c3c(nn2CCCNCCO)-c2c(O)ccc(O)c2C(=O)c13 [Example 53]
- response vs control in vivo at 50 mg/kg [1]: 160%

Compound: NCCNCCNc1ccc2c3c(nn2CCNCCO)-c2c(O)ccc(O)c2C(=O)c13 [Example 66, 5-[[2-[(2-Aminoethyl)amino]ethyl]amino]-7,10-dihydroxy-2-[2-[(2-hydroxyethyl)amino]ethyl]anthra[1,9-cd]pyrazol-6(2H)-one]
- response vs control in vivo at 12.5 mg/kg [1]: 233%
- response vs control in vivo at 25 mg/kg [1]: 221%

Compound: O=C1c2c(O)ccc(O)c2-c2nn(CCNCCO)c3ccc(NCCN(CCO)CCO)c1c23 [Example 67, 5-[[2-[Bis(2-hydroxyethyl)amino]ethyl]amino]-7,10-dihydroxy-2-[2-[(2-hydroxyethyl)-amino]ethyl]anthra(1,9-cd]pyrazol-6(2H)-one]
- response vs control in vivo at 12.5 mg/kg [1]: 158%
- response vs control in vivo at 25 mg/kg [1]: 187%

Compound: O=C1c2c(O)ccc(O)c2-c2nn(CCNCCO)c3ccc(NCCCN(CCO)CCO)c1c23 [Example 68]
- response vs control in vivo at 25 mg/kg [1]: 163%
- response vs control in vivo at 50 mg/kg [1]: 167%
- response vs control in vivo at 100 mg/kg [1]: 192%

Compound: NCCCNCCCCNCCCNc1ccc2c3c(nn2CCNCCO)-c2c(O)ccc(O)c2C(=O)c13 [Example 69, 5-[(3-[[4-[(3-Aminopropyl)amino]butyl]amino]propyl]amino]-7,10-dihydroxy-2-[2-[(2-hydroxyethyl)-amino]ethyl]anthra(1,9-cd]pyrazol-6(2H)-one]
- response vs control in vivo at 6.25 mg/kg [1]: 127%

Compound: CNCCNc1ccc2c3c(nn2CCNCCO)-c2c(O)ccc(O)c2C(=O)c13 [Example 70, 7,10-Dihydroxy-2-[2-[(2-hydraxyethyl)amino]ethyl]-5-[[2-(methylamino)ethyl]amino]anthra[1,9-cd]pyrazol-6(2H)-one]
- response vs control in vivo at 6.25 mg/kg [1]: 277%
- response vs control in vivo at 12.5 mg/kg [1]: 277%

Compound: NCCn1nc2c3c(c(NCCCNCCO)ccc31)C(=O)c1c(O)ccc(O)c1-2 [Example 75, 2-(2-Aminoethyl)-5-[[3-[(2-hydroxyethyl)amino]propyl]amino]-7,10-dihydroxyanthra[1,9-cd]pyrazol-6(2H)-one]
- zone of inhibition at 500 µg/mL (Bacillus subtilis; Dose 0.5 mg/ml): 14 mm
- zone of inhibition at 3000 µg/mL (Streptococcus faecalis; Dose 3.0 mg/ml): 0 mm
- zone of inhibition at 3000 µg/mL (Penicillium avellaneum; Dose 3.0 mg/ml): 0 mm
- response vs control in vivo at 1.56 mg/kg [1]: 181%
- response vs control in vivo at 3.12 mg/kg [1]: 177%
- response vs control in vivo at 6.25 mg/kg [1]: 184%

Compound: O=C1c2c(O)ccc(O)c2-c2nn(CC(O)CO)c3ccc(NCCNCCO)c1c23 (centres unmarked) [Example 78, 2-(2,3-Dihydroxypropyl)-7,10-dihydroxy-5-[[2-[(2-hydroxyethyl)amino]ethyl]amino]anthra[1,9-cd]pyrazol-6(2H)-one]
- response vs control in vivo at 25 mg/kg [1]: 184%
- response vs control in vivo at 50 mg/kg [1]: 177%
- response vs control in vivo at 100 mg/kg [1]: 208%
- response vs control in vivo at 200 mg/kg ([1]; P388, Dose 200 mg/kg intraperitoneally): 218%

Compound: O=C1c2c(O)cccc2-c2nn(CCNCCO)c3ccc(NCCNCCO)c1c23 [Example 83]
- zone of inhibition at 3000 µg/mL (Bacillus subtilis): 14 mm
- zone of inhibition at 3000 µg/mL (Streptococcus faecalis): 0 mm
- zone of inhibition at 3000 µg/mL (Penicillium avellaneum): 0 mm

Compound: CNCCNc1ccc2c3c(nn2CCNCCO)-c2cccc(O)c2C(=O)c13 [Example 84, 7-Hydroxy-2-[2-[(2-hydroxyethyl)amino]ethyl]-5-[[2-(methylamino)ethyl]amino]anthra[1,9-cd]pyrazol-6(2H)-one]
- zone of inhibition at 3000 µg/mL (Bacillus subtilis; Dose 3.0 mg/ml): 15 mm
- zone of inhibition at 3000 µg/mL (Streptococcus faecalis; Dose 3.0 mg/ml): 14 mm
- zone of inhibition at 3000 µg/mL (Penicillium avellaneum; Dose 3.0 mg/ml): 0 mm

Compound: O=C1c2cccc(O)c2-c2nn(CCNCCO)c3ccc(NCCNCCO)c1c23 [Example 85, 10-Hydroxy-2-(2-[(2-hydroxyethyl)amino]ethyl]-5-[[2-[(2-hydroxyethyl)amino]ethyl]amino]anthra[1,9-cd] pyrazol-6(2H)-one]
- zone of inhibition at 3000 µg/mL (Bacillus subtilis; Dose 3.0 mg/ml): 14 mm
- zone of inhibition at 3000 µg/mL (Streptococcus faecalis; Dose 3.0 mg/ml): 0 mm
- zone of inhibition at 3000 µg/mL (Penicillium avellaneum; Dose 3.0 mg/ml): 0 mm
- response vs control in vivo at 25 mg/kg [1]: 163%
- response vs control in vivo at 50 mg/kg [1]: 172%

Compound: O=C1c2c(O)cc(O)c(O)c2-c2nn(CCNCCO)c3ccc(NCCNCCO)c1c23 [Example 86, 7,9,10-Trihydroxy-2-[2-[(2-hydroxyethyl)amino]ethyl]-5-[[2-[(2-hydroxyethyl)amino]lethyl]amino]-anthra[1,9-cd]pyrazol-6(2H)-one]
- response vs control in vivo at 1.56 mg/kg [1]: 155%
- response vs control in vivo at 3.12 mg/kg [1]: 165%

Compound: O=C1c2c(O)c(O)cc(O)c2-c2nn(CCNCCO)c3ccc(NCCNCCO)c1c23 [Example 87, 7,8,10-Trihydroxy-2-[2-[(2-hydroxyethyl)amino]ethyl]-5-[[2-[(2-hydroxyethyl)amino]ethyl]amino]-anthra[1,9-cd]pyrazol-6(2H)-one]
- response vs control in vivo at 12.5 mg/kg [1]: 257%
- response vs control in vivo at 25 mg/kg [1]: 265%

Compound: CN(C)CCNCCNc1ccc2c3c(nn2CCCN)-c2c(O)ccc(O)c2C(=O)c13 [Example 91]
- zone of inhibition at 3000 µg/mL (Bacillus subtilis; Dose 3.0 mg/ml): 15 mm
- zone of inhibition at 3000 µg/mL (Streptococcus faecalis; Dose 3.0 mg/ml): 0 mm
- zone of inhibition at 3000 µg/mL (Penicillium avellaneum; Dose 3.0 mg/ml): 0 mm
